Measured values reported in patent US20120255051A1, “HERBICIDE TOLERANT PLANTS” (priority 2009, published 2012).
Where “and” joins values, the source holds several entries; their conditions need not be identical. Equal entries are not always repeated.

Test system: Brassica plants comprising mutant AHAS alleles
Assay: Field trial, pre-planting treatment (0, 10, 20, 30 g a.i./ha), two locations in Canada: ERG, EST1, EST2, PPTOX, VIG1, VIG2, VIG3 scores
Assay type: in vivo, Brassica napus
Excerpt: Tests were set up and conducted to asses the growth and performance of plants comprising AHAS full knock-out alleles, and to further analyze the correlation between the presence of full knockout and missense AHAS genes in Brassica plants and plant growth and herbicide tolerance of the Brassica plants in the field. To this end, the Brassica plants identified in Example 1 and 2 were backcrossed two times with an elite parent line, and subsequently selfed twice to obtain homozygous plants (BC2S2). Plants were grown as row plots in a split plot design with three replicates (main plots=herbicide treatments, subplots=genotypes) at two locations in Canada. Treatment pre-planting was carried out on the soil about two days before sowing with a dose of 0 (treatment A), 10 (treatment B), 20 (treatment C) or 30 (treatment D) g a.i./ha of thiencarbazone methyl. Herbicide tolerance was measured by scoring for different parameters. The parameter emergence (ERG) was scored at the cotyledon stage on a scale 1-9, where 1 means late emergence and 9 means early emergence. Establishment was scored 14 days after sowing (EST1) and 21 days after sowing (EST2). Scores were from 1 to 9, where 1 is the worst establishment (least plants that emerged), and 9 is the best establishment (most plants emerged). Phytotoxicity (PPTOX) was determined after establishment. Plants were evaluated on a scale of 1 to 9, where 1=completely yellowing, 5=50% of plant is yellow and 9=no yellowing. The vigor scores (see above) were determined at 1-2 leaf stage (VIG1), 7 days after VIG1 (VIG2) and 14 days after VIG1 (VIG3). The average values (Av) and standard deviations (SD) of the scores for the different parameters are represented in Table 7a-g.
Further, the contribution of the knock-out allele to herbicide tolerance conferred by the missense allele was calculated. First, the scores were corrected for a possible effect of the growth per se, independent of herbicide treatment. To this end, the scores for treatments B, C and D were divided by the scores for treatment A for the same genotype and for the same parameter (corrected herbicide tolerance scores). Next, the effect of the knock-out allele to these corrected herbicide tolerance scores obtained by the missense allele was calculated. Therefore, the corrected herbicide tolerance scores for the missense—knock-out allele combination was divided by the corrected herbicide tolerance scores for the missense allele—wild-type combination. In case the knock-out allele has no effect on herbicide tolerance conferred by the missense allele, this ratio should be 1. In case the knock-out allele positively contributes to the herbicide tolerance conferred by the missense allele, this ratio should be higher than 1. The results for the contribution of the knock-out allele to herbicide tolerance conferred by the missense allele as calculated above are shown in table 8.

[1] = AHAS1 HETO108/AHAS3 HETO104, 30 g a.i./ha pre-planting (D), Location A
[2] = AHAS1 HETO108/AHAS3 HETO104, 30 g a.i./ha pre-planting (D), Location B
[3] = AHAS1 HETO108/AHAS3 HETO111, 10 g a.i./ha pre-planting (B), Location A
[4] = AHAS1 HETO108/AHAS3 HETO111, 10 g a.i./ha pre-planting (B), Location B
[5] = AHAS1 HETO108/AHAS3 HETO111, 20 g a.i./ha pre-planting (C), Location A
[6] = AHAS1 HETO108/AHAS3 HETO111, 20 g a.i./ha pre-planting (C), Location B
[7] = AHAS1 HETO108/AHAS3 HETO111, 30 g a.i./ha pre-planting (D), Location A
[8] = AHAS1 HETO108/AHAS3 HETO111, 30 g a.i./ha pre-planting (D), Location B
[9] = AHAS1 HETO108/AHAS3 WT, 10 g a.i./ha pre-planting (B), Location A
[10] = AHAS1 HETO108/AHAS3 WT, 10 g a.i./ha pre-planting (B), Location B
[11] = AHAS1 HETO108/AHAS3 WT, 20 g a.i./ha pre-planting (C), Location A
[12] = AHAS1 HETO108/AHAS3 WT, 20 g a.i./ha pre-planting (C), Location B
[13] = AHAS1 HETO108/AHAS3 WT, 30 g a.i./ha pre-planting (D), Location A
[14] = AHAS1 HETO108/AHAS3 WT, 30 g a.i./ha pre-planting (D), Location B
[15] = AHAS1 HETO112, AHAS3 HETO111, treatment B 10 g a.i./ha pre-planting, Location A
[16] = AHAS1 HETO112, AHAS3 HETO111, treatment B 10 g a.i./ha pre-planting, Location B
[17] = AHAS1 HETO112, AHAS3 HETO111, treatment C 20 g a.i./ha pre-planting, Location A
[18] = AHAS1 HETO112, AHAS3 HETO111, treatment C 20 g a.i./ha pre-planting, Location B
[19] = AHAS1 HETO112, AHAS3 HETO111, treatment D 30 g a.i./ha pre-planting, Location A
[20] = AHAS1 HETO112, AHAS3 HETO111, treatment D 30 g a.i./ha pre-planting, Location B
[21] = AHAS1 HETO112, AHAS3 WT, treatment B 10 g a.i./ha pre-planting, Location A

COC(=O)c1csc(C)c1S(=O)(=O)NC(=O)n1nc(OC)n(C)c1=O [thiencarbazone-methyl, methyl 4-[(4,5-dihydro-3-methoxy-4-methyl-5-oxo-1H-1,2,4-triazol-1-yl)carbonylsulfamoyl]-5-methylthiophene-3-carboxylate]
vigor2 (VIG2) score, Av (AHAS1 HETO108/AHAS3 HETO104, 20 g a.i./ha pre-planting (C), Location B): 6.33 | establishment (EST2) score, Av [1]: 5.33 | phytotoxicity (PPTOX) score, Av [1]: 5.00 | vigor2 (VIG2) score, Av [1]: 5.67 | establishment (EST2) score, Av [2]: 5.33 | phytotoxicity (PPTOX) score, Av [2]: 6.33 | vigor2 (VIG2) score, Av [2]: 6.00 | establishment (EST2) score, Av [3]: 6.33 | vigor1 (VIG1) score, Av [3]: 6.33 | vigor2 (VIG2) score, Av [3]: 7.33 | establishment (EST2) score, Av [4]: 6.00 | vigor2 (VIG2) score, Av [4]: 7.00 | establishment (EST2) score, Av [5]: 5.67 | phytotoxicity (PPTOX) score, Av [5]: 5.00 | vigor2 (VIG2) score, Av [5]: 6.33 | establishment (EST2) score, Av [6]: 5.33 | vigor1 (VIG1) score, Av [6]: 5.00 | vigor2 (VIG2) score, Av [6]: 6.33 | establishment (EST2) score, Av [7]: 6.00 | phytotoxicity (PPTOX) score, Av [7]: 6.00 | vigor1 (VIG1) score, Av [7]: 6.00 | vigor2 (VIG2) score, Av [7]: 7.00 | establishment (EST2) score, Av [8]: 4.00 | vigor2 (VIG2) score, Av [8]: 4.33 | establishment (EST2) score, Av [9]: 6.67 and 6.33 | phytotoxicity (PPTOX) score, Av [9]: 7.00 | vigor1 (VIG1) score, Av [9]: 7.00 and 6.00 | vigor2 (VIG2) score, Av [9]: 8.33 and 7.67 | establishment (EST2) score, Av [10]: 5.00 and 5.33 | phytotoxicity (PPTOX) score, Av [10]: 6.33 and 5.00 | vigor1 (VIG1) score, Av [10]: 6.00 | vigor2 (VIG2) score, Av [10]: 5.33 and 5.67 | establishment (EST2) score, Av [11]: 5.00 and 5.67 | phytotoxicity (PPTOX) score, Av [11]: 5.00 | vigor1 (VIG1) score, Av [11]: 6.00 | vigor2 (VIG2) score, Av [11]: 6.67 | phytotoxicity (PPTOX) score, Av [12]: 7.00 | vigor1 (VIG1) score, Av [12]: 5.00 | vigor2 (VIG2) score, Av [12]: 6.33 and 7.67 | establishment (EST2) score, Av [13]: 5.67 and 5.33 | phytotoxicity (PPTOX) score, Av [13]: 5.00 | vigor2 (VIG2) score, Av [13]: 6.33 | phytotoxicity (PPTOX) score, Av [14]: 5.00 | vigor1 (VIG1) score, Av [14]: 5.00 | vigor2 (VIG2) score, Av [14]: 5.00 and 5.33 | emergence (ERG) score Av [15]: 4.33 | establishment (EST1) score Av, 14 days after sowing [15]: 5.00 | emergence (ERG) score Av [16]: 4.33 | establishment (EST1) score Av, 14 days after sowing [16]: 5.67 | emergence (ERG) score Av [17]: 5.00 | establishment (EST1) score Av, 14 days after sowing [17]: 5.33 | emergence (ERG) score Av [18]: 4.00 | establishment (EST1) score Av, 14 days after sowing [18]: 5.00 | emergence (ERG) score Av [19]: 5.33 | establishment (EST1) score Av, 14 days after sowing [19]: 5.67 | emergence (ERG) score Av [20]: 3.00 | establishment (EST1) score Av, 14 days after sowing [20]: 3.67 | emergence (ERG) score Av [21]: 1.67 | establishment (EST1) score Av, 14 days after sowing [21]: 1.67 | emergence (ERG) score Av (AHAS1 HETO112, AHAS3 WT, treatment B 10 g a.i./ha pre-planting, Location B): 1.67
